Experiment: Differential Scanning Calorimetry (DSC) detection of incompatibilities, binary mixtures in equal parts
Type: physicochemical
Settings: mixture in equal parts with ibuprofen, heating rate 5° C./min
Experimental: The technique called Differential Scanning calorimetry or DSC has been used for the thermal detection of possible incompatibilities among ingredients of the pharmaceutical formulation described in the present invention. Thus, by using a differential Scanning calorimeter, DSC-7 (Perkin-Elmer, USA) at a heating rate of the samples of 5° C./min, the quantity of energy or enthalpy required to keep the sample at the same temperature as that of the reference and that at each of the test temperatures is measured. […] However, when phase changes occur, the isothermal energy required is registered as an electric signal generated by thermocouples. It is understood that a change of phase occurs (or appearance of incompatibility) if the expected temperature value varies above the considered environment by 10% with respect to its original. Said error is carried from that produced typically in the analytical measurements (±5%, typical in terms of reproducibility), the uncertainty of apparatus calibration (±1%), the accuracy of the micromixture of ingredients achieved (±3%), and the rapid heating rates (±1% for heating>1° C./min). DSC is widely used in the industry as a quality control instrument due to its applicability in assessing the purity of the samples and studying the curing of the polymers. […]

With CCCCCCCCCCCCCCCCCCOC(=O)/C=C/C(=O)[O-].[Na+] [sodium stearyl fumarate] the “thermal/physical incompatibility with ibuprofen by DSC” value was “does not show any physical incompatibility”.

In the case of magnesium stearate, the “thermal/physical incompatibility with ibuprofen by DSC” value is reported as “incompatible eutectic mixture”.

Reference: US20130064890A1, “PHARMACEUTICAL FORMULATION BASED ON IBUPROFEN AND CODEINE HAVING IMPROVED STABILITY” ([…] MANUFACTURING, S.L., priority 2010, published 2013)
